Measured values from patent US5789431A, “Naphthoquinone antitumor compound and method” (The University of North Carolina at Chapel Hill, priority 1996, dated 1998).

Columns and labels:
[1] = system: SNB-75; experiment: in vitro CNS cancer cell growth inhibition (NCI screen)
[2] = system: 786-0; experiment: in vitro renal cancer cell growth inhibition (NCI screen)
[3] = system: HCT-15; experiment: in vitro colon cancer cell growth inhibition (NCI screen)
[4] = system: M14; experiment: in vitro melanoma cell growth inhibition (NCI screen)
[5] = system: DLD-1; experiment: in vitro colon cancer cell growth inhibition (NCI screen)
[6] = system: LXFL 529; experiment: in vitro non-small cell lung cancer cell growth inhibition (NCI screen)
[7] = system: RPMI-8226; experiment: in vitro leukemia cell growth inhibition (NCI screen)
[8] = system: CCRF-CEM; experiment: as above
[9] = system: HL-60(TB); experiment: as above
[10] = system: K-562; experiment: as above
[11] = system: LOX1MVI; experiment: in vitro melanoma cell growth inhibition (NCI screen)
[12] = system: UACC-62; experiment: as above
[13] = system: OVCAR-3; experiment: in vitro ovarian cancer cell growth inhibition (NCI screen)
[14] = system: SF-539; experiment: in vitro CNS cancer cell growth inhibition (NCI screen)
[15] = system: HOP-18; experiment: in vitro non-small cell lung cancer cell growth inhibition (NCI screen)
[16] = system: M19-MEL; experiment: in vitro melanoma cell growth inhibition (NCI screen)
[17] = system: NCI-H266; experiment: in vitro non-small cell lung cancer cell growth inhibition (NCI screen)
[18] = system: UACC-257; experiment: in vitro melanoma cell growth inhibition (NCI screen)
[19] = system: SW 620; experiment: in vitro colon cancer cell growth inhibition (NCI screen)
[20] = system: CAKI-1; experiment: in vitro renal cancer cell growth inhibition (NCI screen)
[21] = system: MOLT-4; experiment: in vitro leukemia cell growth inhibition (NCI screen)
[22] = system: XF-498; experiment: in vitro CNS cancer cell growth inhibition (NCI screen)
[23] = system: TK-10; experiment: in vitro renal cancer cell growth inhibition (NCI screen)
[24] = system: SN12C; experiment: as above
[25] = system: RXF-393; experiment: as above
[26] = system: SK-MEL-5; experiment: in vitro melanoma cell growth inhibition (NCI screen)
[27] = system: HOP-62; experiment: in vitro non-small cell lung cancer cell growth inhibition (NCI screen)
[28] = system: OVCAR-4; experiment: in vitro ovarian cancer cell growth inhibition (NCI screen); conditions: OVACR-4
[29] = system: SK-MEL-28; experiment: in vitro melanoma cell growth inhibition (NCI screen)
[30] = system: HCT-116; experiment: in vitro colon cancer cell growth inhibition (NCI screen)
[31] = system: EKVX; experiment: in vitro non-small cell lung cancer cell growth inhibition (NCI screen)
[32] = system: KM 12; experiment: in vitro colon cancer cell growth inhibition (NCI screen)
[33] = system: PC-3; experiment: in vitro prostate cancer cell growth inhibition (NCI screen)
[34] = system: NCI-H522; experiment: in vitro non-small cell lung cancer cell growth inhibition (NCI screen)
[35] = system: MDA-N; experiment: in vitro breast cancer cell growth inhibition (NCI screen)
[36] = system: SF-268; experiment: in vitro CNS cancer cell growth inhibition (NCI screen)
[37] = system: MALME-3M; experiment: in vitro melanoma cell growth inhibition (NCI screen)
[38] = system: NCI-H23; experiment: in vitro non-small cell lung cancer cell growth inhibition (NCI screen)
[39] = system: MCF-7; experiment: in vitro breast cancer cell growth inhibition (NCI screen)
[40] = system: SF-295; experiment: in vitro CNS cancer cell growth inhibition (NCI screen)
[41] = system: SK-MEL-2; experiment: in vitro melanoma cell growth inhibition (NCI screen)
[42] = system: RXF-631; experiment: in vitro renal cancer cell growth inhibition (NCI screen)
[43] = system: U 251; experiment: in vitro CNS cancer cell growth inhibition (NCI screen)
[44] = system: SR; experiment: in vitro leukemia cell growth inhibition (NCI screen)
[45] = system: HOP-92; experiment: in vitro non-small cell lung cancer cell growth inhibition (NCI screen)
[46] = system: ACHN; experiment: in vitro renal cancer cell growth inhibition (NCI screen)
[47] = system: NCI-H460; experiment: in vitro non-small cell lung cancer cell growth inhibition (NCI screen)
[48] = system: UO-31; experiment: in vitro renal cancer cell growth inhibition (NCI screen)

CC(=O)NC1=C(NC(C)(C)C)C(=O)c2ccccc2C1=O [Compound 32]
cytotoxicity log GI50 [1]: -4.86 M | cytotoxicity log GI50 [2]: -5.47 M | cytotoxicity log GI50 [3]: -4.76 M | cytotoxicity log GI50 [4]: -4.77 M | cytotoxicity log GI50 [5]: -4.80 M | cytotoxicity log GI50 [6]: -4.82 M | cytotoxicity log GI50 [7]: -4.93 M | cytotoxicity log GI50 [8]: -5.63 M | cytotoxicity log GI50 [9]: -5.65 M | cytotoxicity log GI50 [10]: -5.14 M | cytotoxicity log GI50 [11]: -4.78 M | cytotoxicity log GI50 [12]: -4.86 M | cytotoxicity log GI50 [13]: -4.81 M | cytotoxicity log GI50 [14]: -4.80 M | cytotoxicity log GI50 [15]: -4.83 M | cytotoxicity log GI50 [16]: -4.81 M | cytotoxicity log GI50 [17]: -4.84 M | cytotoxicity log GI50 [18]: -4.80 M | cytotoxicity log GI50 [19]: -4.85 M | cytotoxicity log GI50 [20]: -4.79 M | cytotoxicity log GI50 [21]: -5.19 M | cytotoxicity log GI50 [22]: -4.95 M

CCNC1=C(NC(=O)CCl)C(=O)c2ccccc2C1=O [Compound 44]
cytotoxicity log GI50 [23]: -4.75 M | cytotoxicity log GI50 [24]: -4.75 M | cytotoxicity log GI50 [25]: -4.78 M | cytotoxicity log GI50 [26]: -4.78 M | cytotoxicity log GI50 [27]: -4.78 M | cytotoxicity log GI50 [28]: -4.77 M | cytotoxicity log GI50 [13]: -4.75 M | cytotoxicity log GI50 [29]: -4.75 M | cytotoxicity log GI50 [30]: -4.74 M | cytotoxicity log GI50 [31]: -4.80 M | cytotoxicity log GI50 [32]: -4.77 M | cytotoxicity log GI50 [33]: -4.80 M | cytotoxicity log GI50 [34]: -4.82 M | cytotoxicity log GI50 [35]: -4.81 M

O=C(O)CCCc1nc2c(n1Cc1ccccc1)C(=O)c1ccccc1C2=O [Compound 57]
cytotoxicity log GI50 [36]: -4.58 M | cytotoxicity log GI50 [4]: -5.43 M | cytotoxicity log GI50 [37]: -4.80 M | cytotoxicity log GI50 [7]: -4.73 M | cytotoxicity log GI50 [38]: -4.50 M | cytotoxicity log GI50 [39]: -4.53 M | cytotoxicity log GI50 [8]: -5.28 M | cytotoxicity log GI50 [9]: -4.54 M | cytotoxicity log GI50 [28]: -4.69 M | cytotoxicity log GI50 [12]: -4.76 M | cytotoxicity log GI50 [13]: -4.67 M | cytotoxicity log GI50 [40]: -4.59 M | cytotoxicity log GI50 [30]: -4.54 M | cytotoxicity log GI50 [31]: -4.50 M | cytotoxicity log GI50 [18]: -4.60 M | cytotoxicity log GI50 [41]: -4.83 M | cytotoxicity log GI50 [34]: -4.53 M | cytotoxicity log GI50 [35]: -4.65 M

CCC(c1ccc(F)cc1)c1nc2c(n1CC)C(=O)c1ccccc1C2=O (stereo not shown) [Compound 65]
cytotoxicity log GI50 [42]: -4.71 M | cytotoxicity log GI50 [24]: -4.90 M | cytotoxicity log GI50 [5]: -5.69 M | cytotoxicity log GI50 [7]: -4.68 M | cytotoxicity log GI50 [9]: -4.74 M | cytotoxicity log GI50 [25]: -4.83 M | cytotoxicity log GI50 [12]: -4.95 M | cytotoxicity log GI50 [43]: -4.71 M | cytotoxicity log GI50 [17]: -4.82 M | cytotoxicity log GI50 [44]: -4.73 M | cytotoxicity log GI50 [45]: -4.75 M | cytotoxicity log GI50 [41]: -4.77 M | cytotoxicity log GI50 [21]: -4.73 M | cytotoxicity log GI50 [22]: -4.70 M

CCn1c(Cc2ccc(F)cc2)nc2c1C(=O)c1ccccc1C2=O [Compound 66]
cytotoxicity log GI50 [1]: -4.80 M | cytotoxicity log GI50 [42]: -4.82 M | cytotoxicity log GI50 [37]: -4.94 M | cytotoxicity log GI50 [7]: -4.94 M | cytotoxicity log GI50 [8]: -5.08 M | cytotoxicity log GI50 [9]: -5.33 M | cytotoxicity log GI50 [46]: -4.85 M | cytotoxicity log GI50 [14]: -4.88 M | cytotoxicity log GI50 [16]: -5.02 M | cytotoxicity log GI50 [18]: -5.10 M | cytotoxicity log GI50 [45]: -4.97 M | cytotoxicity log GI50 [47]: -4.90 M | cytotoxicity log GI50 [48]: -5.33 M | cytotoxicity log GI50 [34]: -5.06 M
